This note sets out measurements from patent US20230052601A1, “HALO ACTIVE AROMATIC SULFONAMIDE PHARMACEUTICAL COMPOSITIONS FOR INTERNAL USE” (priority 2021, published 2023).

The experiment deals with P. aeruginosa. Nature of the experiment: Flame burn injury with subcutaneous P. aeruginosa infection in mice, survival (Example 3). Format: in vivo. Particulars: burned mice infected with P. aeruginosa; 1 mg then six doses of 0.5 mg subcutaneously; observed seven days; five treated animals; controls 4 of 11 survived; Fisher exact 0.0337. The protocol:
Adult mice (n=16) received a ˜20% flame burn injury, followed by resuscitation with two doses of 0.5 mL of saline and […] of tramadol for analgesia. After 5 minutes, they were infected with P. aeruginosa subcutaneously under the burn wound. 20 minutes post injury, five of the animals received 1 mg of BENZ subcutaneously in 0.25 ml saline, followed by six doses of 0.5 mg of BENZ subcutaneously also in 0.25 ml saline, approximately 8-12 hours apart. The animals were observed several times daily for seven days.

Regarding `O=C(O)c1ccc(S(=O)(=O)NCl)cc1` [BENZ, N-chloro-4-carboxybenzenesulfonamide], the “survival of treated animals” value is listed as “all five survived”.
